# Source: US20140378408A1, “NUCLEOSIDE 5'-PHOSPHOROTHIOATE ANALOGUES AND USES THEREOF” (BAR-ILAN UNIVERSITY, an Israeli University, priority 2012, published 2014)
# Assays:
# Aβ40-Cu^2+ aggregates = biological target: T1, Aβ40-Cu^2+ aggregates (Homo sapiens, UniProt P05067); assay: DLS, size reduction of Aβ40-Cu^2+ aggregates
# T1 construct: purchased GL-Biochem (Shanghai)
# Description: PBS buffer, Aβ40, chelator, Zn(NO3)2, and Cu(NO3)2 solutions were filtered through a […] PVDF syringe filter. 496 μM Aβ40 solution in 10 mM PBS (pH 7.4) and 2 mM Zn(NO3)2 solution were mixed to obtain 200 μM Aβ40-Zn^2+ (1:1 ratio) of a cloudy solution. Similarly, 2 mM Cu(NO3)2 solution was added to 496 μM Aβ40 in 10 mM PBS (pH 6.6). Aβ40-Zn^2+/Cu^2+ (10 μl) solution was transferred to Eppendorf tubes containing 10 mM PBS buffer (64 or 67 μl) followed by the addition of 3 and 6 eq of 2 mM nucleotide (6 or 3 μl) solution and incubation for 45 min at RT. The resulting mixture was incubated for another 30 min at RT and DLS data were then collected in a 70 μl disposable cuvette. The final sample concentrations were 25 μM Aβ40, 25 μM Zn^2+ or Cu^2+, and 150 or 75 μM nucleotide.
# Monomeric Aβ40 was incubated with either Cu^2+ or Zn^2+ for 45 min to form a 1:1 peptide metal-ion complex. […] For the Aβ40-Zn^2+ particles the instrument readings indicated a different size distribution. […] We evaluated the capacity of the phosphorothioate analogues to dissolve Aβ40-Cu^2+ or Zn^2+ aggregates, as compared to EDTA and clioquinol known for their ability to dissolve Aβ-M^2+ aggregates (Ritchie et al., 2003; Huang et al., 1997). The reduction of dH of Aβ40-Cu^2+ aggregates by EDTA, clioquinol, or tested compounds was compared to the dH of Aβ-Cu^2+ aggregate itself (FIG. 5A). In addition, the efficacy of the chelators ATP-γ-S, ADP-β-S, APCPP-γ-S and GDP-β-S to resolubilize Aβ40-Cu^2+ and Aβ40-Zn^2+ is described in FIGS. 5B and 5C relative to EDTA and clioquinol. EDTA efficiency in reducing Aβ particle size is considered as 100%.
# [1] = ESR OH radical assay, Fe^2+/H2O2 Fenton system; settings: N/A = minimal radical production exceeds 10%
# Aβ40-Cu^+ complex = biological target: T2, Aβ40-Cu^+ complex (Homo sapiens, UniProt P05067); assay: Re-solubilization of Aβ40-Cu^+ aggregates monitored by 1H-NMR; settings: 6 eq, pD 7.8
# T2 construct: purchased GL-Biochem (Shanghai)
# T2 sequence (P05067 672-711, one chain of several): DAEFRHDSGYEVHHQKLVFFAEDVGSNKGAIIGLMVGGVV
# Description: ^1H-NMR spectrum of 0.25 mM Aβ40 (concentration determined by UV) in 10 mM TRIS-d11 (500 μl, pD 11) was measured at 278 K. The pD was adjusted to 7.8 by the addition of 0.1 N DCl (33 μl), and ^1H-NMR spectrum was measured (700 MHz, 80 scans), as well as after each of the following additions: (A) 8.3 mM Cu^+ (15 μl, 1 eq); (B) 6 mM compound 7 (21 μl, 1 eq); (C) 6 mM compound 7 (42 μL, 3 eq); (D) of 6 mM APCPP-γ-S (62.4 μl, 6 eq); (E) of 6 mM APCPP-γ-S (62.4 μl, 9 eq). At the end of the titration, the acetonitrile concentration was 2% (v/v) in 735.8 μl, pD 8.4.
# APCPP-γ-S, the most promising chelator identified here, was used also to resolubilize Aβ40-Cu^+ aggregates. This process was monitored by ^1H-NMR similar to that described above for Aβ28. First, the ^1H-NMR spectrum of 0.25 mM Aβ40 monomer at 278 K, pD 11, was measured (FIG. 7a), after adjustment of Aβ40 solution pD to 7.8 the signals shifted and broadened (FIG. 7b). Upon addition of 1 eq 8.3 mM Cu(CH3CN)4PF6 the signals dramatically further broadened (FIG. 7c).
# PC12 cells = assay: Toxicity at PC12 cells (MTT assay); type: cell-based
# Description: The results shown are the mean±S.D of three independent experiments in triplicate.
# In this study, the toxicity of APCPP-γ-S, at 1-1000 μM, at PC12 cells was tested by MTT assay. […] At 1000 μM, 75% of the cells were still viable.
# [2] = Stability in human blood serum; type: in vitro ADME
# TNAP = biological target: T3, TNAP (Homo sapiens, UniProt P05186); assay: Hydrolysis by TNAP; type: in vitro ADME; settings: 1 h
# T3 sequence (P05186 18-501): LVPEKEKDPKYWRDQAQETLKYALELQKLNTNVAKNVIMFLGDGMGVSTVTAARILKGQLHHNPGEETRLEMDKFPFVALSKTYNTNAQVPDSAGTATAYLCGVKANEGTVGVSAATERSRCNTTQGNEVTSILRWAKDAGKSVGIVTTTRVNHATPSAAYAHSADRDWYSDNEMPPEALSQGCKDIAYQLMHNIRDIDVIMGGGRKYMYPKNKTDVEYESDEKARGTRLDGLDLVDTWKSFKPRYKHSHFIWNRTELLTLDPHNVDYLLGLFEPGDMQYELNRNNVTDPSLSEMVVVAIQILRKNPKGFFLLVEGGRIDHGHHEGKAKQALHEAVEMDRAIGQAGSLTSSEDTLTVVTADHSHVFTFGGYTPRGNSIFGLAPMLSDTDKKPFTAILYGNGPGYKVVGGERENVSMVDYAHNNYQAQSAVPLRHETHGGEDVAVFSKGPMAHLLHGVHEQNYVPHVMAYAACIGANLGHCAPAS
# Text: The metabolic stability of APPCCl2P-α-S (isomer A) and APCPP-γ-S was further proven by their resistance to enzymatic hydrolysis by TNAP.
# human chondrocyte cells = assay: NTMP hydrolysis in human chondrocyte cells; type: cell-based; settings: 0.1 mM, NTMP 0.1 mM, OD 405 nm
# Description: Increased chondrocyte PPi production, and PPi-generating NPP1 activity are linked with CPPD crystal deposition disease, common in aging and osteoarthritic cartilage. […] Its hydrolysis by endogenous enzyme (NPP1) from matrix vesicles (MVs), human chondrocytes or cartilage pieces results in elevated OD at 405 nm.
# In order to test the ability of the NPP1 inhibitor to inhibit NTMP hydrolysis in human chondrocyte cells, human chondrocytes 1.5×10^4 per well were seeded in 96 well plate in 100 μl DMEM/10% fetal calf serum (FCS). One day before the experiment, the medium was changed to DMEM only (w/o phenol red). Human chondrocytes were incubated with 0.1 mM NTMP in TES, pH 7.37, in the presence or absence of 0.1 mM of the NPP1 inhibitor for 0, 15′, 30′, 1, 2, 4, 6, 18 hours at 37° C. At each time point the reaction was read at 405 nm.
# matrix vesicles (MVs) = assay: CPPD formation in MVs by FTIR analysis; set-up: species or system human; settings: MV+ATP+analogue
# T1 sequence (P05067 672-711 limits assumed): as the sequence (P05067 672-711, one chain of several) above
structure (smiles),measurement,setting,value
"Nc1ncnc2c1ncn2[C@@H]1O[C@H](COP(=O)(O)CP(=O)(O)OP(O)(O)=S)[C@@H](O)[C@H]1O [APCPP-γ-S, adenosine 5′-[Pγ-thio]-α,β-methylenetriphosphate]",dH (particle size) of Aβ40-Cu^2+ after chelator,"Aβ40-Cu^2+ aggregates; aggregate alone 1836 nm, 25 μM Aβ40-Cu^2+, pH 6.6",64 nm
same,IC90,[1],211 ± 7 µM
same,effect on Aβ40-Cu^+ 1H-NMR spectrum,Aβ40-Cu^+ complex,all signals reappeared
same,reduction of cell viability,PC12 cells; 1000 μM,25%
same,viable cells,PC12 cells; 1000 μM,75%
same,not toxic up to (concentration),PC12 cells; 24 h,up to 100 μM
same,stability in human blood serum,[2],stable
same,Hydrolysis by TNAP,TNAP,2.5%
"Nc1ncnc2c1ncn2[C@@H]1O[C@H](COP(O)(=S)OP(=O)(O)C(Cl)(Cl)P(=O)(O)O)[C@@H](O)[C@H]1O (single isomer, unassigned) [APPCCl2P-α-S, adenosine 5′-[Pα-thio]-β,γ-(dichloromethylene)triphosphate]",viable cells,PC12 cells; 100 μM,100%
same,viable cells,PC12 cells; 1000 μM,75%
"Nc1ncnc2c1ncn2[C@@H]1O[C@H](COP(O)(=S)OP(=O)(O)C(Cl)(Cl)P(=O)(O)O)[C@@H](O)[C@H]1O (single isomer, unassigned; isomer a) [APPCCl2P-α-S (isomer A), adenosine 5′-[Pα-thio]-β,γ-(dichloromethylene)triphosphate]",inhibition of NTMP hydrolysis in human chondrocyte cells,human chondrocyte cells,inhibit the hydrolysis of NTMP
same,CPPD production in MVs (FTIR bands 920 and 1125 cm^−1),matrix vesicles (MVs),a decrease in production of CPPD
same,Hydrolysis by TNAP,TNAP,fully stable
"Nc1ncnc2c1ncn2[C@@H]1O[C@H](COP(=O)(O)OP(O)(O)=S)[C@@H](O)[C@H]1O [ADP-β-S, adenosine 5′-[β-thio]diphosphate, reference compound]",fold better than GDP-β-S in reducing dH of Aβ40-Cu^2+ aggregates,Aβ40-Cu^2+ aggregates,5.4 fold
same,IC90,[1],210 ± 1 µM
